Data taken from US7473711B2, “Androgen modulators” (Pfizer Inc., priority 2004, dated 2009).
Where a chain is given by its changes, count along the chain named. Read-outs that look alike come from different tables or passages of the source.

Experiments:
[1] = target: T1, androgen receptor in MDA-MB453-MMTV clone 54-19 cells (Homo sapiens, UniProt P10275); test: AR antagonist cell assay (MMTV-luciferase reporter, 100 pM DHT); format: cell-based
T1 sequence (P10275 1-920 Q868H): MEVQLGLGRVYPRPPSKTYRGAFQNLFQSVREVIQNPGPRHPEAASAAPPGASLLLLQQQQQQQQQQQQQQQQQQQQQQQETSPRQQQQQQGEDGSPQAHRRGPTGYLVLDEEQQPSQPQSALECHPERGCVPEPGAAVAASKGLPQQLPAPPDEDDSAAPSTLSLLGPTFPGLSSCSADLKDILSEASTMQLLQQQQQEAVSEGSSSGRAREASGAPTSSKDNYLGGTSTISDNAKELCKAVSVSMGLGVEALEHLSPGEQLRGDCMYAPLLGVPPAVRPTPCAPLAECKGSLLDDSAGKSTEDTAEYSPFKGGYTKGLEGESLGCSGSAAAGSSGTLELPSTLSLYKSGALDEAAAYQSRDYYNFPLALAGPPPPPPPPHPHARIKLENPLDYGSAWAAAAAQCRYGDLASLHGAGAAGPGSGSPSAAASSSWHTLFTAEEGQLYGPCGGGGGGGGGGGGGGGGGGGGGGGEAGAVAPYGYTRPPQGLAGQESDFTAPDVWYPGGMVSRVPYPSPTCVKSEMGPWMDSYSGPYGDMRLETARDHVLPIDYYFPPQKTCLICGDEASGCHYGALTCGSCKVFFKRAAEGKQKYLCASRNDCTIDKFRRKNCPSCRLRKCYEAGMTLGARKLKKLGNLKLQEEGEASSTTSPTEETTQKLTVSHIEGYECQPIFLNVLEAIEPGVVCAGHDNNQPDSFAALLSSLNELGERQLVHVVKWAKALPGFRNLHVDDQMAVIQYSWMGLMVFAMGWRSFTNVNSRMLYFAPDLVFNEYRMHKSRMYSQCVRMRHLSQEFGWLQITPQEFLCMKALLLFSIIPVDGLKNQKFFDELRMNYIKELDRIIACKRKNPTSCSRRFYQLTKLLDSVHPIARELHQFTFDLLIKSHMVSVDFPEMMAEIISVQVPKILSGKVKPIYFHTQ
Description: The compounds ability to antagonize the effects of androgen on the androgen receptor were determined in a whole cell assay as described immediately below.
Experimental Procedure for AR Antagonist Cell Assay
Cell line: MDA-MB453-MMTV clone 54-19. This cell line is a stable transfected cell line with MDA-MB453 cell background (a human breast tumor cell line expressing androgen receptor). A MMTV minimal promoter containing ARE was first cloned in front of a firefly luciferase reporter gene. Then the cascade was cloned into transfection vector pUV120puro. Electroporation method was used for transfecting MDA-MB-453 cell. Puromycin resistant stable cell line was selected. Cell Culture Media and Reagents:
Culture medium: DMEM (high glucose, Gibco cat #: 11960-044), 10% FBS, and 1% L-glutamine
Plating medium: DMEM (phenol red free), 10% charcoal treated HyClone serum, 1% L-glutamine
Assay medium: DMEM (phenol red free), 1% charcoal treated HyClone serum, 1% L-glutamine, and 1% penicillin/streptomycin
3X luciferase buffer: 2% beta-mercaptoethanol, 0.6% ATP, 0.0135% luciferine in cell lysis buffer
• 1. Cells are maintained in culture medium, splitting cells when they reach 80-90% confluence • 2. To test compounds, 10,000 cells/well are plated to opaque 96 cell culture plate in 100 ul/well plating medium, culture for overnight at 37° C. in cell culture incubator • 3. Carefully remove plating medium, then add 80 ul/well of pre-warmed assay medium, add 10 ul/well testing compound (final concentration at) 1000 nM, 200 nM, 40 nM, 8 nM, 1.6 nM, and 0.32 nM), incubate at 37° C. for 30 minutes • 4. Add 10 ul/well freshly prepared DHT (final concentration at 100 pM) to each well, incubate at 37° C. for 17 hr (overnight) • 5. Add 50 ul/well 3X luciferase buffer, incubate at room temperature for 5 minutes, then count on Luminometer
The fold induction over background by 100 pM DHT in the absence of testing compounds is standardized as 100% and experimental result is expressed as percentage of inhibition by testing compounds.
The results are reported as the mean of multiple tests as described below (the numbers of tests are indicated in the footnote). N.D. denotes that the compound was not tested.

[2] = target: T2, hAR (human androgen receptor) (Homo sapiens, UniProt P10275); test: Competitive binding analysis on hAR extracts with 3H-DHT tracer
T2 construct: made in house; host or cells: baculovirus/Sf9 insect cells (extract)
T2 sequence (P10275 1-920): T1 sequence (P10275 1-920 Q868H) with H868Q
Description: The compounds of Formula I have affinity for the androgen receptor. […] The description below describes how the assay was carried out.
Competitive binding analysis was performed on baculovirus/Sf9 generated hAR extracts in the presence or absence of different concentrations of test agent and a fixed concentration of ^3H-dihydrotestosterone (^3H-DHT) as tracer. This binding assay method is a modification of a protocol previously described (Liao S., et. al. J. Steroid Biochem. 20:11-17 1984). Briefly, progressively decreasing concentrations of compounds are incubated in the presence of hAR extract (Chang et al. P.N.A.S. Vol. 89, pp. […], 1992), hydroxylapatite, and 1 nM ^3H-DHT for one hour at 4° C. Subsequently, the binding reactions are washed three times to completely remove excess unbound ^3H-DHT. hAR bound ^3H-DHT levels are determined in the presence of compounds (i.e. competitive binding) and compared to levels bound when no competitor is present (i.e. maximum binding). Compound binding affinity to the hAR is expressed as the concentration of compound at which one half of the maximum binding is inhibited. Table II below provides the results that were obtained for selected compounds (reported data is the mean of multiple tests as shown below)

[3] = read-out: AR Cell IC50; MDA-MB453-MMTV clone 54-19, inhibition of 100 pM DHT induced luciferase, 17 hr; mean of multiple tests
[4] = MDA-MB453-MMTV clone 54-19, inhibition of 100 pM DHT induced luciferase, 17 hr; mean of multiple tests; read-out: AR Cell IC50
[5] = baculovirus/Sf9 hAR extract, 1 nM 3H-DHT, one hour at 4° C, mean of multiple tests, read-out: AR Binding IC50

| Compound | IC50 [1, 3] [nM] | IC50 [2] [nM] | IC50 [1, 4] [nM] | IC50 [2, 5] [nM] |
| --- | --- | --- | --- | --- |
| COC[C@H](COc1ccccc1)Oc1ccc(C#N)c(C(F)(F)F)c1 [Example 30, (1R)-4-(1-Methoxymethyl-2-phenoxy-ethoxy)-2-trifluoromethyl-benzonitrile] | 40 | 30 | – | – |
| CCCC(Oc1ccc(C#N)c(C(F)(F)F)c1)C(CC)COc1ccc(C#N)c(C(F)(F)F)c1 (stereo not drawn) [Example 19, 4-{[3-(4-Cyanophenoxy)-2-ethylhexyl]oxy}bis[2-(trifluoromethyl)benzonitrile]] | – | – | > 1000 | 216 |
| CC(CCOc1ccc(C#N)c(C(F)(F)F)c1)Oc1ccc(C#N)c(C(F)(F)F)c1 (stereo not drawn) [Example 13, 4,4′-[Butane-1,3-diylbis(oxy)]bis[2-(trifluoromethyl)benzonitrile]] | 100 | 10 | – | – |
| CC(CCOc1ccc(C#N)c(C(F)(F)F)c1)CCOc1ccc(C#N)c(C(F)(F)F)c1 [Example 26, 4,4′-[(3-Methylpentane-1,5-diyl)bis(oxy)]bis[2-(trifluoromethyl)benzonitrile]] | – | – | 212 | 156 |
| C[C@H](CCOc1ccc(C#N)c(C(F)(F)F)c1)Oc1ccc(C#N)c(C(F)(F)F)c1 [Example 14, 4-({(3R)-3-[4-Cyano-3-(trifluoromethyl)phenoxy]butyl}oxy)-2-(trifluoromethyl)benzonitrile] | – | – | 905 | 281 |
| COCC(COc1ccc(C#N)c(C(F)(F)F)c1)Oc1ccc(C#N)c(C(F)(F)F)c1 (stereo not drawn) [Example 5, 4,4′-[(3-Methoxypropane-1,2-diyl)bis(oxy)]bis[2-(trifluoromethyl)benzonitrile]] | – | 56 | 187 | – |
| CC1(C)CC1(COc1ccc(C#N)c(C(F)(F)F)c1)Oc1ccc(C#N)c(C(F)(F)F)c1 (stereo not drawn) [Example 10, 4-[1-(4-Cyano-3-trifluoromethyl-phenoxymethyl)-2,2-dimethyl-cyclopropoxy]-2-trifluoromethyl-benzonitrile] | – | – | 447 | 174 |
| CC(CCCCOc1ccc(C#N)c(C(F)(F)F)c1)Oc1ccc(C#N)c(C(F)(F)F)c1 (stereo not drawn) [Example 25, 4,4′-[Hexane-1,5-diylbis(oxy)]bis[2-(trifluoromethyl)benzonitrile]] | – | – | > 1000 | 159 |
| C[C@@H](CCOc1ccc(C#N)c(C(F)(F)F)c1)Oc1ccc(C#N)c(C(F)(F)F)c1 [Example 15, 4-({(3S)-3-[4-Cyano-3-(trifluoromethyl)phenoxy]butyl}oxy)-2-(trifluoromethyl)benzonitrile] | – | 49 | 257 | – |
| C=CCC(CCOc1ccc(C#N)c(C(F)(F)F)c1)Oc1ccc(C#N)c(C(F)(F)F)c1 (stereo not drawn) [Example 17, 4,4′-[Hex-1-ene-4,6-diylbis(oxy)]bis[2-(trifluoromethyl)benzonitrile]] | – | 47 | > 1000 | – |
| CC(C)(CCOc1ccc(C#N)c(C(F)(F)F)c1)Oc1ccc(C#N)c(C(F)(F)F)c1 [Example 18, 4,4′-[(3-Methylbutane-1,3-diyl)bis(oxy)]bis[2-(trifluoromethyl)benzonitrile]] | – | – | > 1000 | 410 |
| CCOCC(COc1ccc(C#N)c(C(F)(F)F)c1)Oc1ccc(C#N)c(C(F)(F)F)c1 (stereo not drawn) [Example 6, 4,4′-[(3-Ethoxypropane-1,2-diyl)bis(oxy)]bis[2-(trifluoromethyl)benzonitrile]] | – | – | > 1000 | 124 |
| CC(COc1ccc(C#N)c(C(F)(F)F)c1)C(C)Oc1ccc(C#N)c(C(F)(F)F)c1 (stereo not drawn) [Example 16, 4-{3-[4-Cyano-3-(trifluoromethyl)phenoxy]-1,2-dimethylpropoxy}-2-(trifluoromethyl)benzonitrile] | – | – | – | 372 |
| CC(C)CCCC(COc1ccc(C#N)c(C(F)(F)F)c1)Oc1ccc(C#N)c(C(F)(F)F)c1 (stereo not drawn) [Example 8] | – | – | > 1000 | 967 |
| CC(CCC(C)Oc1ccc(C#N)c(C(F)(F)F)c1)Oc1ccc(C#N)c(C(F)(F)F)c1 (stereo in doubt) [Example 23, 4,4′-[(2S,5S)-Hexane-2,5-diylbis(oxy)]bis[2-(trifluoromethyl)benzonitrile]] | – | – | 202 | 180 |
| C[C@@H](Oc1ccc(C#N)c(C(F)(F)F)c1)[C@@H](C)Oc1ccc(C#N)c(C(F)(F)F)c1 [Example 2, 4,4′-[(2R,3R)-Butane-2,3-diylbis(oxy)]bis[2-(trifluoromethyl)benzonitrile]] | 67 | 34 | – | – |
| CCCCCCC(COc1ccc(C#N)c(C(F)(F)F)c1)Oc1ccc(C#N)c(C(F)(F)F)c1 (stereo not drawn) [Example 9, 4,4′-[Octane-1,2-diylbis(oxy)]bis[2-(trifluoromethyl)benzonitrile]] | – | – | 531 | 109 |
